Data as given in patent US7998978B2 (Pfizer Inc., priority 2006, dated 2011).

The compounds below were run against T1, JNK1α1 (Homo sapiens, UniProt P45983) (assay: Coupled spectrophotometric (PK/LDH) JNK1α1 assay: % inhibition and Ki determination). Conditions: @1 uM; read-out: % Inhibition JNK-1.
T1 construct: catalytic domain containing amino acids 1-364 and N-terminal hexahistidine tag; hexahistidine (His6) (N); made in house; host or cells: E. coli BL21 (DE3)
Assay type: biochemical
Method in brief: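 Initial rates were taken from the absorbance decrease at 340 nm at 30° C. Ki was fitted with a tight-binding model over 11 concentrations (top 100 μM); single-point inhibition was tested at 1 or 10 μM.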

T1 sequence (P45983 1-364): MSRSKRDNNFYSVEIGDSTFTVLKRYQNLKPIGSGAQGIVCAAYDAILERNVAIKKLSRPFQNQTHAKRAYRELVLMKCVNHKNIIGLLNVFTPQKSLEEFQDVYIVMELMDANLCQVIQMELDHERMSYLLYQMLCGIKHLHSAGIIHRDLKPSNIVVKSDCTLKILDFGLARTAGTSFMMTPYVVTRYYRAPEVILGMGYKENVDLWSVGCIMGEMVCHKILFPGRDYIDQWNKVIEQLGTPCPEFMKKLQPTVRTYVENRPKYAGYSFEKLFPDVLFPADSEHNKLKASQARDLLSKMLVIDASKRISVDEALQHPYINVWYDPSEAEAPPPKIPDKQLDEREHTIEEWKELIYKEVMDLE

Question: How did the inhibition at 1 µM turn out when `O=C(N[C@@H]1COC[C@H]1O)c1ccc2cnc(NC3CCC3)nc2c1` [Example 433, 2-(cyclobutylamino)-N-[(3R,4S)-4-hydroxytetrahydrofuran-3-yl]quinazoline-7-carboxamide] was run?
Answer: The inhibition at 1 µM was 24%.

Question: With `Cc1ccn(CCNC(=O)c2cccc3cnc(N[C@H]4CC[C@H](O)CC4)nc23)n1` [Example 498, 2-[(trans-4-hydroxycyclohexyl)amino]-N-[2-(3-methyl-1H-pyrazol-1-yl)ethyl]quinazoline-8-carboxamide] as the compound, how does the inhibition at 1 µM read?
Answer: The inhibition at 1 µM was 11%.

Question: For `Cc1nnc(CCNC(=O)c2cccc3cnc(N[C@H]4CC[C@H](O)CC4)nc23)o1` [Example 522, 2-[(trans-4-hydroxycyclohexyl)amino]-N-[2-(5-methyl-1,3,4-oxadiazol-2-yl)ethyl]quinazoline-8-carboxamide], which inhibition at 1 µM is on record?
Answer: The inhibition at 1 µM was 18%.

Question: Which inhibition at 1 µM does the source give for `O[C@H]1CC[C@H](Nc2ncc3ccc(O[C@H]4CCN(Cc5ccccc5)C4)cc3n2)CC1` [Example 277, trans-4-[(7-{[(3S)-1-benzylpyrrolidin-3-yl]oxy}quinazolin-2-yl)amino]cyclohexanol] here?
Answer: Its inhibition at 1 µM is 46%.

Question: For `Cc1noc(CNC(=O)c2cccc3cnc(N[C@H]4CC[C@H](O)CC4)nc23)n1` [Example 530, 2-[(trans-4-hydroxycyclohexyl)amino]-N-[(3-methyl-1,2,4-oxadiazol-5-yl)methyl]quinazoline-8-carboxamide], which inhibition at 1 µM is on record?
Answer: The inhibition at 1 µM was 26%.

Question: With `O=C(NCCO)c1ccc2cnc(NC3CCC3)nc2c1` [Example 430, 2-(cyclobutylamino)-N-(2-hydroxyethyl)quinazoline-7-carboxamide] as the compound, how does the inhibition at 1 µM read?
Answer: Its inhibition at 1 µM is 11%.

Question: With `O=C(NCc1nc(-c2ccccc2)no1)c1cccc2cnc(N[C@H]3CC[C@H](O)CC3)nc12` [Example 513, 2-[(trans-4-hydroxycyclohexyl)amino]-N-[(3-phenyl-1,2,4-oxadiazol-5-yl)methyl]quinazoline-8-carboxamide] as the compound, how does the inhibition at 1 µM read?
Answer: Its inhibition at 1 µM is 21%.

Question: `O=C1OCCN1CCOc1ccc2cnc(N[C@H]3CC[C@H](O)CC3)nc2c1` [Example 282, 3-[2-({2-[(trans-4-hydroxycyclohexyl)amino]quinazolin-7-yl}oxy)ethyl]-1,3-oxazolidin-2-one] was tested. Which inhibition at 1 µM did it give?
Answer: The inhibition at 1 µM was 71%.

Question: For `O=C(NCCc1cn2ccccc2n1)c1cccc2cnc(N[C@H]3CC[C@H](O)CC3)nc12` [Example 494, 2-[(trans-4-hydroxycyclohexyl)amino]-N-(2-imidazol[1,2-a]pyridin-2-ylethyl)quinazoline-8-carboxamide], which inhibition at 1 µM is on record?
Answer: The inhibition at 1 µM was 16%.

Question: How did the inhibition at 1 µM turn out when `CNC(=O)c1ccc2c(c1)CCO[C@H]2CCOc1ccc2cnc(N[C@H]3CC[C@H](O)CC3)nc2c1` [Example 292, (1S)-1-[2-({2-[(trans-4-hydroxycyclohexyl)amino]quinazolin-7-yl}oxy)ethyl]-N-methyl-3,4-dihydro-1H-isochromene-6-carboxamide] was run?
Answer: Its inhibition at 1 µM is 54%.

Same assay, conditions: @10 uM; read-out: % Inhibition JNK-1

Question: Which inhibition at 10 µM does the source give for `O=C(NCC1CN(C2CCC2)C(=O)CO1)c1cccc2cnc(N[C@H]3CC[C@H](O)CC3)nc12` (stereo partly drawn) [Example 526, N-[(4-cyclobutyl-5-oxomorpholin-2-yl)methyl]-2-[(trans-4-hydroxycyclohexyl)amino]quinazoline-8-carboxamide] here?
Answer: The inhibition at 10 µM was 41%.

Question: With `Cc1cccnc1CC(C)NC(=O)c1cccc2cnc(N[C@H]3CC[C@H](O)CC3)nc12` (stereo partly drawn) [Example 495, 2-[(trans-4-hydroxycyclohexyl)amino]-N-(1-methyl-2-(3-methylpyridin-2-yl)ethyl]quinazoline-8-carboxamide] as the compound, how does the inhibition at 10 µM read?
Answer: The inhibition at 10 µM was 76%.

Same assay, conditions: JNK-1

Question: Which Ki does the source give for `O=C(Cc1ccc2ccccc2c1)Nc1cc2cc(-c3cn[nH]c3)ccc2cn1` [Example 5, 2-(2-naphthyl)-N-[6-(1H-pyrazol-4-yl)isoquinolin-3-yl]acetamide] here?
Answer: Its Ki is 79 nM.

Question: With `O=C(NC1(CO)CCCC1)c1ccc2cnc(N[C@H]3CC[C@H](O)CC3)nc2c1` [Example 400, 2-[(trans-4-hydroxycyclohexyl)amino]-N-[1-(hydroxymethyl)cyclopentyl]quinazoline-7-carboxamide] as the compound, how does the Ki read?
Answer: The Ki was 478 nM.

Question: With `O=C(NCC1(O)CCC1)c1cccc2cnc(N[C@H]3CC[C@H](O)CC3)nc12` [Example 129, N-[(1-hydroxycyclobutyl)methyl]-2-[(trans-4-hydroxycyclohexyl)amino]quinazoline-8-carboxamide] as the compound, how does the Ki read?
Answer: Its Ki is 130 nM.

Question: With `CS(=O)(=O)N[C@H]1CC[C@H](Nc2ncc3cccc(C(=O)N[C@@H]4CCC[C@H]4O)c3n2)CC1` (relative stereo) [Example 137, N-[(trans)-2-hydroxycyclopentyl]-2-({trans-4-[(methylsulfonyl)amino]cyclohexyl}amino)quinazoline-8-carboxamide] as the compound, how does the Ki read?
Answer: The Ki was 263 nM.

Question: With `CCC(CO)NC(=O)c1cccc2cnc(N[C@H]3CC[C@H](O)CC3)nc12` (stereo partly drawn) [Example 442, 2-[(trans-4-hydroxycyclohexyl)amino]-N-[1-(hydroxymethyl)propyl]quinazoline-8-carboxamide] as the compound, how does the Ki read?
Answer: Its Ki is 83 nM.

Question: For `O[C@H]1CC[C@H](Nc2ncc3ccc(Oc4ccccc4)cc3n2)CC1` [Example 161, trans-4-[(7-phenoxyquinazolin-2-yl)amino]cyclohexanol], which Ki is on record?
Answer: The Ki was 111 nM.

Question: Which Ki does the source give for `CC1(CNC(=O)c2cccc3cnc(N[C@H]4CC[C@H](O)CC4)nc23)COC1` [Example 453] here?
Answer: Its Ki is 170 nM.

Question: With `O=C(COc1cccc(-c2cnccn2)c1)Nc1cc2cc(-c3cn[nH]c3)ccc2cn1` [Example 32, 2-(3-pyrazin-2-ylphenoxy)-N-[6-(1H-pyrazol-4-yl)isoquinolin-3-yl]acetamide] as the compound, how does the Ki read?
Answer: Its Ki is 8 nM.

Question: For `CN(C)c1ncccc1NC(=O)c1ccc2cnc(N[C@H]3CC[C@H](O)CC3)nc2c1` [Example 331, N-[2-(dimethylamino)pyridin-3-yl]-2-[(trans-4-hydroxycyclohexyl)amino]quinazoline-7-carboxamide], which Ki is on record?
Answer: The Ki was 410 nM.

Question: How did the Ki turn out when `O=C(N[C@H]1CC[C@H](O)CC1)c1ccc2cnc(N[C@H]3CC[C@H](O)CC3)nc2c1` [Example 328, N-(trans-4-hydroxycyclohexyl)2[(trans-4-hydroxycyclohexyl)amino]quinazoline-7-carboxamide] was run?
Answer: Its Ki is 257 nM.

Question: How did the Ki turn out when `O=C(NCc1ccccc1)c1ccc2cnc(N[C@H]3CC[C@H](O)CC3)nc2c1` [Example 81, N-benzyl-2-[(trans-4-hydroxycyclohexyl)amino]quinazoline-7-carboxamide] was run?
Answer: The Ki was 63 nM.

Question: With `O=C(COCc1ccccc1)Nc1cc2cc(-c3cn[nH]c3)ccc2cn1` [Example 49, 2-(benzyloxy)-N-[6-(1H-pyrazol-4-yl)isoquinolin-3-yl]acetamide] as the compound, how does the Ki read?
Answer: The Ki was 3 nM.

Question: How did the Ki turn out when `N[C@H]1CC[C@H](Nc2ncc3cccc(OC4CCOCC4)c3n2)CC1` [Example 178, trans-N-[8-(tetrahydro-2H-pyran-4-yloxy)quinazolin-2-yl]cyclohexane-1,4-diamine] was run?
Answer: The Ki was 744 nM.

Question: For `CC[C@@H](CO)NC(=O)c1ccc2cnc(NC3CCCCC3)nc2c1` [Example 388, 2-(cyctohexylamino)-N-[(1S)-1-(hydroxymethyl)propyl]quinazoline-7-carboxamide], which Ki is on record?
Answer: The Ki was 303 nM.

Question: `CCS(=O)(=O)N[C@H]1CC[C@H](Nc2ncc3cccc(OC4CCOC4)c3n2)CC1` (stereo partly drawn) [Example 188, N-(trans-4-{[8-(tetrahydrofuran-3-yloxy)quinazolin-2-yl]amino}cyclohexyl)ethanesulfonamide] was tested. Which Ki did it give?
Answer: The Ki was 374 nM.

Question: How did the Ki turn out when `O=C(N[C@@H]1COC[C@H]1O)c1ccc2cnc(NC3CCCCC3)nc2c1` [Example 405, 2-(cyclohexylamino)-N-[(3R,4S)-4-hydroxytetrahydrofuran-3-yl]quinazoline-7-carboxamide] was run?
Answer: Its Ki is 722 nM.
